Where “and” joins values, the source holds several entries; their conditions need not be identical. Equal entries are not always repeated. Starred links: 1 amine or outer side, 2 acyl side, 3 side chain; linkers in the order of their positions; H or OH if unused. Positions of bridges follow the written chain, without caps; N, C: chain ends. Non-standard residues stand in square brackets, D forms with d. Residues, ends and D or L forms follow the SMILES beside them. *: point of attachment. hTyr(3S-OH,4S-OH,3'-OSO3H) = N[C@H](C(=O)O)[C@H](O)[C@@H](O)c1ccc(O)c(OS(=O)(=O)O)c1; Orn(4R-OH,5R-OH) = O=C([C@H](C[C@@H](O)[C@@H](O)N[*:3])N[*:1])[*:2]; Pro(3S-OH,4S-Me) = C[C@H]1CN[C@H](C(=O)O)[C@H]1O; X1 = CCCCCOc1ccc(-c2cc(-c3ccc(C(=O)*)cc3)no2)cc1; Gln(3R-OH) = NC(=O)C[C@@H](O)[C@H](N)C(=O)O; Hyp = O=C(O)[C@@H]1C[C@@H](O)CN1
Tests used:
Saksenaea isolate = assay: CLSI broth dilution antifungal susceptibility testing; details: Saksenaea isolate from patient wound, CLSI broth dilution reference method
[1] = system: Trichosporon asahii and Saksenaea species; assay: Tissue, wound, blood and bone cultures of the fungal wound sepsis patient; type: in vivo, human; details: posaconazole, amphotericin B and micafungin together, before IL-7
Text: They were aggressively treated with daily or alternating-day operative debridement, broad-spectrum parenteral and topical antibacterial and antifungal therapy. Antimicrobial therapy included ceftazidime, metronidazole, trimethoprim-sulfamethoxazole, micafungin, amphotericin B, and posaconazole (FIG. 29), as well as VERAFLO vac instillation of antimicrobials into the wound bed. The patient's polymicrobial soft tissue infection continued to advance and was accompanied by multisystem organ failure and shock. Over a 4-week period, they required debridement of >3000 cm^2 of skin, subcutaneous tissue, and muscle involving the entire perineum, bilateral thighs, buttocks, and circumferential abdominal wall (FIG. 28B).
Tissue histology also became negative for fungus at approximately the same time as tissue cultures (FIG. 28E).

[2] = system: peripheral blood mononuclear cells (T cell IFN-γ production); type: cell-based, human
mucormycosis = details: nivolumab (anti-PD-1) and IFN-γ together, Belgian bomb blast victim, reference 5; cited from earlier work

Molecule	Drug sensitivities (Saksenaea isolate) [µg/mL]	wound cultures for Trichosporon asahii and Saksenaea species despite triple antifungal therapy [1]	also measured
C[C@@H]1[C@H](O)[C@@H](C)/C=C/C=C/C=C/C=C/C=C/C=C/C=C/[C@H](O[C@@H]2O[C@H](C)[C@@H](O)[C@H](N)[C@@H]2O)C[C@@H]2O[C@](O)(C[C@@H](O)C[C@@H](O)[C@H](O)CC[C@@H](O)C[C@@H](O)CC(=O)O[C@H]1C)C[C@H](O)[C@H]2C(=O)O [amphotericin B]	< 0.03	persistently positive	
C[C@@H]1C[C@H]2[C@@H]3CCC4=CC(=O)C=C[C@]4(C)[C@@]3(F)[C@@H](O)C[C@]2(C)[C@@]1(O)C(=O)COP(=O)(O)O [dexamethasone, dexamethasone phosphate]			decrease in IFN-γ production (ELISpot total well intensity) [2]: 61% and 58%; reduction in the number of IFN-γ secreting cells [2]: 30% and 49%
C[C@@H](c1nc(-c2ccc(C#N)cc2)cs1)[C@](O)(Cn1cncn1)c1cc(F)ccc1F [isavuconazole]	1		
CCCCCOc1ccc(-c2cc(-c3ccc(C(=O)N[C@H]4C[C@@H](O)[C@@H](O)NC(=O)[C@@H]5[C@@H](O)[C@@H](C)CN5C(=O)[C@H]([C@H](O)CC(N)=O)NC(=O)[C@H]([C@H](O)[C@@H](O)c5ccc(O)c(OS(=O)(=O)O)c5)NC(=O)[C@@H]5C[C@@H](O)CN5C(=O)[C@H]([C@@H](C)O)NC4=O)cc3)no2)cc1 [micafungin] (X1-[Orn(4R-OH,5R-OH)]T[Hyp][hTyr(3S-OH,4S-OH,3'-OSO3H)][Gln(3R-OH)][Pro(3S-OH,4S-Me)]; lactam 1-C)		persistently positive	
CC[C@@H]([C@H](C)O)n1ncn(-c2ccc(N3CCN(c4ccc(OC[C@@H]5CO[C@@](Cn6cncn6)(c6ccc(F)cc6F)C5)cc4)CC3)cc2)c1=O [posaconazole]	0.25	persistently positive	
IFN-γ: interferon-γ given as immune-adjuvant therapy			outcome of immune-adjuvant therapy in refractory mucormycosis (mucormycosis): rapid clinical improvement, enhanced immune phenotypic markers, and fungal elimination
nivolumab [reference compound]			outcome of immune-adjuvant therapy in refractory mucormycosis (mucormycosis): rapid clinical improvement, enhanced immune phenotypic markers, and fungal elimination

From patent publication US20220091133A1, “METHODS AND ASSAYS FOR IMMUNE PHENOTYPING” (Washington University, priority 2020, published 2022)
